These results are taken from US6727264B1 (Synaptic Pharmaceutical Corporation, priority 2001, dated 2004).

For orientation: Ki means the equilibrium dissociation constant of an inhibitor or competing ligand from its target.

The target in this assay is rat MCH-1 (Rattus norvegicus, UniProt P97639). Kind of assay: Radioligand binding assay at cloned rat MCH1 receptor ([3H] Compound A). The settings on record: cloned rat MCH1 receptor; 0.08 nM [3H] Compound A; Peakr293 cell membranes; read-out: Ki (nM) rMCH1. The arrangement: host or cells: Peak rapid 293 (Peakr293) cells, transient calcium phosphate transfection, membranes.
Sequence of rat MCH-1 (P97639 whole entry): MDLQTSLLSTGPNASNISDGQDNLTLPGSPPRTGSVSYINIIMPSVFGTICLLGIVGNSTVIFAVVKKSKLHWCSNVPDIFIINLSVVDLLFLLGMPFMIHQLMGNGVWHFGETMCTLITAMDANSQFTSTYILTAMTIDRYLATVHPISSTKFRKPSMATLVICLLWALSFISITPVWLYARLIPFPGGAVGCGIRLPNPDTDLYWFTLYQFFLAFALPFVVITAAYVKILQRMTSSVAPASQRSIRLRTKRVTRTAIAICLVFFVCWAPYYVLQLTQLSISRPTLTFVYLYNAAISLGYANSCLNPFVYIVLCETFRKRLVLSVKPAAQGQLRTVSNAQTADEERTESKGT
On to `CCC(=O)Nc1cccc(C2CCN(Cc3c[nH]c4c([N+](=O)[O-])cccc34)CC2)c1` [Example 515], for which the Ki is 296 nM.

As to `CC(C)C(=O)Nc1cccc(C2CCN(Cc3c[nH]c4c(-c5ccccc5F)cccc34)CC2)c1` [Example 516], the inhibitory constant (Ki) was determined as 90.9 nM.

As for `CC(C)C(=O)Nc1cccc(C2CCN(Cc3c[nH]c4c(-c5ccc6ccccc6c5)cccc34)CC2)c1` [Example 517], the inhibition constant (Ki) worked out at 287 nM.

Consider `CCc1ccc(-c2cccc3c(CN4CCC(c5cccc(NC(=O)C(C)C)c5)CC4)c[nH]c23)cc1` [Example 518], for which the Ki stood at 226 nM.

In the case of `Cc1ccccc1-c1ccc2c(CN3CCC(c4cccc(NC(=O)C(C)C)c4)CC3)c[nH]c2c1` [Example 519], the Ki is 80.9 nM.

Consider `CC(C)C(=O)Nc1cccc(C2CCN(Cc3c[nH]c4c(-c5cccc(Cl)c5)cccc34)CC2)c1` [Example 520], for which the inhibition constant Ki turned out to be 135 nM.

In the case of `CC(C)C(=O)Nc1cccc(C2CCN(Cc3c[nH]c4c(-c5cccc([N+](=O)[O-])c5)cccc34)CC2)c1` [Example 521], the Ki amounted to 27 nM.

Consider `CC(=O)c1ccc(-c2cccc3c(CN4CCC(c5cccc(NC(=O)C(C)C)c5)CC4)c[nH]c23)cc1` [Example 522], for which the inhibition constant Ki worked out at 247 nM.

In the case of `CCc1ccc(-c2ccc3c(CN4CCC(c5cccc(NC(=O)C(C)C)c5)CC4)c[nH]c3c2)cc1` [Example 523], the Ki is 54.8 nM.

`Cc1ccccc1-c1cccc2c(CN3CCC(c4cccc(NC(=O)C(C)C)c4)CC3)c[nH]c12` [Example 524]: the Ki stood at 199 nM.

Turning to `CC(C)C(=O)Nc1cccc(C2CCN(Cc3c[nH]c4cc(-c5ccccc5F)ccc34)CC2)c1` [Example 525], the inhibitory constant (Ki) amounted to 91.4 nM.

`CC(C)C(=O)Nc1cccc(C2CCN(Cc3c[nH]c4ccc(Br)cc34)CC2)c1` [Example 526]: the inhibitory constant (Ki) came out at 411 nM.

In the case of `Cc1ccc(Oc2ccc3[nH]cc(CN4CCC(c5cccc(NC(=O)C(C)C)c5)CC4)c3c2)cc1` [Example 527], the inhibition constant (Ki) was 226 nM.

On to `CC(C)C(=O)Nc1cccc(C2CCN(CCCCCCC(=O)c3ccccc3)CC2)c1` [Example 528], for which the inhibition constant (Ki) worked out at 115 nM.

With `CC(C)C(=O)Nc1cccc(C2CCN(CCCCCC(=O)c3ccccc3)CC2)c1` [Example 529], the inhibition constant (Ki) worked out at 42.4 nM.

For `CCC(=O)Nc1cccc(C2CCN(CCCC(=O)c3ccc(OC)cc3)CC2)c1` [Example 531], the Ki is 105 nM.

`CCC(=O)Nc1cccc(C2CCN(CCCC(=O)c3ccc(Cl)cc3)CC2)c1` [Example 532]: the Ki came out at 8.7 nM.

On to `CCC(=O)Nc1cccc(C2CCN(CCCC(=O)c3ccc(Br)cc3)CC2)c1` [Example 533], for which the inhibition constant (Ki) worked out at 10.6 nM.

For `CCC(=O)Nc1cccc(C2CCN(CCCC(=O)c3ccc(C(C)(C)C)cc3)CC2)c1` [Example 534], the inhibition constant Ki turned out to be 155 nM.

For the compound `CCC(=O)Nc1cccc(C2CCN(CCCC(=O)c3ccc(F)cc3)CC2)c1` [Example 535], the inhibitory constant (Ki) turned out to be 28.1 nM.

`CCC(=O)Nc1cccc(C2CCN(CCCC(=O)c3ccc(Oc4ccccc4)cc3)CC2)c1` [Example 536]: the inhibition constant Ki stood at 150 nM.

Consider `CC(C)c1ccc(C(=O)CCCN2CCC(c3cccc(NC(=O)C4CC4)c3)CC2)cc1` [Example 537], for which the inhibitory constant (Ki) stood at 67.7 nM.

As to `COc1ccc(C(=O)CCCN2CCC(c3cccc(NC(=O)C4CC4)c3)CC2)cc1` [Example 538], the inhibition constant (Ki) was 36.3 nM.

For the compound `O=C(CCCN1CCC(c2cccc(NC(=O)C3CC3)c2)CC1)c1ccc(Oc2ccccc2)cc1` [Example 539], the Ki is 268 nM.

Take `CCC(=O)Nc1cccc(C2CCN(CCCC(=O)c3ccc(C(C)C)cc3)CC2)c1` [Example 540]: the inhibition constant (Ki) is 172 nM.

Turning to `CC(C)(C)c1ccc(C(=O)CCCN2CCC(c3cccc(NC(=O)C4CC4)c3)CC2)cc1` [Example 541], the Ki is 319 nM.

Take `CCC(=O)Nc1cccc(C2CCN(CCCC(=O)c3ccc(C)cc3)CC2)c1` [Example 542]: the inhibitory constant (Ki) was determined as 31.3 nM.

Consider `CCC(=O)Nc1cccc(C2CCN(CCCC(=O)c3ccc(C)c(C)c3)CC2)c1` [Example 543], for which the inhibition constant (Ki) turned out to be 27.6 nM.

`O=C(CCCN1CCC(c2cccc(NC(=O)C3CC3)c2)CC1)c1ccc(Br)cc1` [Example 544]: the Ki was determined as 16.2 nM.

Regarding `CCC(=O)Nc1cccc(C2CCN(CCCCC(=O)c3ccc(F)cc3)CC2)c1` [Example 545], the inhibition constant (Ki) turned out to be 52 nM.

For `Cc1ccc(C(=O)CCCN2CCC(c3cccc(NC(=O)C4CC4)c3)CC2)cc1C` [Example 546], the Ki came out at 87.9 nM.

For the compound `Cc1ccc(C(=O)CCCN2CCC(c3cccc(NC(=O)C4CC4)c3)CC2)cc1` [Example 547], the Ki turned out to be 75.5 nM.

Turning to `O=C(CCCN1CCC(c2cccc(NC(=O)C3CC3)c2)CC1)c1ccc(F)cc1` [Example 548], the inhibition constant (Ki) was 126 nM.

For `O=C(CCCCN1CCC(c2cccc(NC(=O)C3CC3)c2)CC1)c1cccc(F)c1` [Example 549], the Ki amounted to 39.7 nM.

As to `CCC(=O)Nc1cccc(C2CCN(CCCCC(=O)c3ccc(C(F)(F)F)cc3)CC2)c1` [Example 550], the inhibitory constant (Ki) amounted to 60.9 nM.

For `O=C(CCCCN1CCC(c2cccc(NC(=O)C3CC3)c2)CC1)c1ccc(F)cc1` [Example 551], the Ki worked out at 21.6 nM.

Take `CCC(=O)Nc1cccc(C2CCN(CCCCC(=O)c3cccc([N+](=O)[O-])c3)CC2)c1` [Example 552]: the Ki was determined as 24.7 nM.

As to `O=C(CCCCN1CCC(c2cccc(NC(=O)C3CC3)c2)CC1)c1cccc([N+](=O)[O-])c1` [Example 553], the Ki was found to be 27.5 nM.

Regarding `CCC(=O)Nc1cccc(C2CCN(CCCCC(=O)c3ccccc3F)CC2)c1` [Example 554], the Ki was 70.9 nM.

`CCC(=O)Nc1cccc(C2CCN(CCCCC(=O)c3cccc(F)c3)CC2)c1` [Example 555]: the Ki is 50.3 nM.

For `CCC(=O)Nc1cccc(C2CCN(CCCCC(=O)c3ccc([N+](=O)[O-])cc3)CC2)c1` [Example 556], the Ki was 35.6 nM.

On to `O=C(CCCCN1CCC(c2cccc(NC(=O)C3CC3)c2)CC1)c1ccc([N+](=O)[O-])cc1` [Example 557], for which the Ki was 25.6 nM.

Turning to `O=C(CCCCN1CCC(c2cccc(NC(=O)C3CC3)c2)CC1)c1ccc(Cl)cc1` [Example 558], the Ki came out at 20.2 nM.

With `CCC(=O)Nc1cccc(C2CCN(CCCCC(=O)c3ccccc3C(F)(F)F)CC2)c1` [Example 559], the Ki was determined as 62.3 nM.

With `O=C(CCCCN1CCC(c2cccc(NC(=O)C3CC3)c2)CC1)c1ccccc1C(F)(F)F` [Example 560], the inhibition constant (Ki) amounted to 55.7 nM.

For `CCC(=O)Nc1cccc(C2CCN(CCCCC(=O)c3ccc(Cl)cc3)CC2)c1` [Example 561], the inhibition constant Ki is 92.9 nM.

Turning to `CCC(=O)Nc1cccc(C2CCN(CCCCC(=O)c3cccc(Cl)c3)CC2)c1` [Example 562], the Ki came out at 48.1 nM.

Regarding `O=C(CCCCN1CCC(c2cccc(NC(=O)C3CC3)c2)CC1)c1ccccc1F` [Example 563], the Ki was 50.2 nM.

`O=C(CCCCN1CCC(c2cccc(NC(=O)C3CC3)c2)CC1)c1cccc(Cl)c1` [Example 564]: the Ki turned out to be 28.9 nM.

In the case of `O=C(CCCCN1CCC(c2cccc(NC(=O)C3CC3)c2)CC1)c1ccc(C(F)(F)F)cc1` [Example 565], the Ki came out at 49.2 nM.

Consider `CCC(=O)Nc1cccc(C2CCN(CCCCC(=O)c3ccccc3Cl)CC2)c1` [Example 566], for which the inhibition constant Ki came out at 77.8 nM.

As for `O=C(CCCCN1CCC(c2cccc(NC(=O)C3CC3)c2)CC1)c1ccccc1Cl` [Example 567], the inhibition constant (Ki) is 92.2 nM.

On to `O=C(CCCCN1CCC(c2cccc(NC(=O)C3CC3)c2)CC1)c1cccc(C(F)(F)F)c1` [Example 568], for which the Ki is 68.8 nM.

Regarding `Cc1ccc(C(=O)CCCN2CCC(c3cccc(N(C)C(=O)C(C)C)c3)CC2)cc1C` [Example 569], the inhibitory constant (Ki) was found to be 549 nM.

Regarding `CC(C)C(=O)Nc1cccc(C2CCN(C(C)CCC(=O)c3ccccc3)CC2)c1` (stereo not drawn) [Example 570], the Ki was 136 nM.

Consider `CCC(=O)Nc1cccc(C2CCN(CCCCC(=O)c3cccc(C(F)(F)F)c3)CC2)c1` [Example 571], for which the inhibitory constant (Ki) was 88.3 nM.

In the case of `CC(C)C(=O)Nc1cccc(C2CCN(CCCCC(=O)N3C(=O)OC[C@H]3c3ccc(F)c(F)c3)CC2)c1` [Example 572], the Ki was 181 nM.

Regarding `CC(C)C(=O)Nc1cccc(C2CCN(CCCNC(=O)N3C(=O)OC[C@H]3c3ccc(F)c(F)c3)CC2)c1` [Example 573], the Ki is 114 nM.

As for `CC(C)C(=O)Nc1cccc(C2CCN(CCCCCN3C(=O)OC[C@@H]3c3ccc(F)c(F)c3)CC2)c1` [Example 574], the inhibition constant Ki is 87.1 nM.

Turning to `CC(C)C(=O)Nc1cccc(C2CCN(CCCCC(=O)N3C(=O)OC[C@@H]3c3ccc(F)c(F)c3)CC2)c1` [Example 575], the Ki came out at 193 nM.

In the case of `CC(C)C(=O)Nc1cccc(C2CCN(CCCNC(=O)N3C(=O)OC[C@@H]3c3ccc(F)c(F)c3)CC2)c1` [Example 576], the Ki came out at 74.3 nM.

As to `CC(C)C(=O)Nc1cccc(C2CCN(CCCNC(=O)N3C(=O)OC[C@@H]3c3cc(F)c(F)c(F)c3)CC2)c1` [Example 577], the inhibition constant Ki came out at 64.7 nM.

Consider `CC(C)C(=O)Nc1cccc(C2CCN(CCCNC(=O)N3C(=O)OC[C@@H]3c3cc(F)cc(F)c3)CC2)c1` [Example 578], for which the inhibitory constant (Ki) amounted to 98.8 nM.

As for `CCC(=O)Nc1cccc(C2CCN(CCCSc3ccccc3)CC2)c1` [Example 579], the Ki was 131 nM.

Take `O=C(Nc1cccc(C2CCN(CCCSc3ccccc3)CC2)c1)C1CC1` [Example 580]: the Ki worked out at 54 nM.

Take `CC(C)C(=O)Nc1cccc(C2CCN(CCCSc3ccccc3)CC2)c1` [Example 581]: the inhibitory constant (Ki) was 86.4 nM.

Consider `O=C(Nc1cccc(C2CCN(CCCCCCSc3ccccc3)CC2)c1)C1CC1` [Example 582], for which the Ki turned out to be 58.3 nM.

Take `CCC(=O)Nc1cccc(C2CCN(CCCCSc3ccccc3)CC2)c1` [Example 583]: the inhibition constant Ki is 55.5 nM.

For the compound `O=C(Nc1cccc(C2CCN(CCCCSc3ccccc3)CC2)c1)C1CC1` [Example 584], the Ki was found to be 51.8 nM.

As for `CC(C)C(=O)Nc1cccc(C2CCN(CCCCSc3ccccc3)CC2)c1` [Example 585], the inhibitory constant (Ki) turned out to be 37.2 nM.

Turning to `CC(C)C(=O)Nc1cccc(C2CCN(CCCCCSc3ccccc3)CC2)c1` [Example 586], the Ki came to 42.9 nM.

Turning to `O=C(Nc1cccc(C2CCN(CCCCCSc3ccccc3)CC2)c1)C1CC1` [Example 587], the inhibitory constant (Ki) is 46.9 nM.
